From patent US8901337B2, “Metal complexes having dual histone deacetylase inhibitory and DNA-binding activity” (Royal College of Surgeons in Ireland, priority 2009, dated 2014)

Experiments:
A2780 P cells [1] = assay: Inhibition of DNA synthesis, BrdU incorporation assay, A2780 P; assay type: cell-based, human; details: 72 hr, FIG. 18
Description: DNA synthesis was determined using 5-bromo-2-deoxyuridine (BrdU) colourimetric incorporation assay.^18 A2780 P and A2780 cisR cells were seeded into 96 well plates and allowed to adhere overnight. All test agents were added and incubated for 72 hr prior to the addition of BrdU (10 μM per well). Plates were then incubated at 37° C. for 4 h and incorporation was quantified by ELISA (Calbiochem).

[2] = system: caspase-3 activation in A2780 P cells; assay: Caspase-3 colourimetric assay, A2780 P; assay type: cell-based, human; details: 72 hr, IC50 and IC75, FIG. 20
Description: (§1) Both floating and attached cells were collected by centrifugation. Cells, at a density of 1.5×10^6 cells/ml were washed with PBS and then re-suspended in chilled cell lysis buffer (supplied in the Caspase-3 colourimetric assay kit, Calbiochem, UK). Cells were incubated on ice for 10 min and then centrifuged for 1 min at 10,000 g. The cytosolic fraction (supernatant) was collected into a fresh tube and 50 μl (2 mg/ml) of each protein sample was transferred to a 96 well plate and diluted with lysis buffer. A 50 μl aliquot of X2 reaction buffer, containing 10 mM DTT was added, followed by 5 μl of 4 mM DEVD-pNA substrate to give a final concentration of 200 μM. The plate was then incubated at 37° C. for 1-2 h. OD was determined at 400 nm using an Anthos HT-II microtitreplate reader. The fold increase in caspase-3 and -9 activities was determined by comparing results to that obtained with un-induced control.

[3] = system: caspase-9 activation in A2780 P cells; assay: Caspase-9 assay, A2780 P; assay type: cell-based, human; details: 72 hr, IC50 and IC75, FIG. 22
Description: as §1

[4] = system: caspase-9 activation in A2780 cisR cells; assay: Caspase-9 assay, A2780 cisR; assay type: cell-based, human; details: 72 hr, IC50 and IC75, FIG. 23
Description: as §1

A2780 P cells [5] = assay: Morphological analysis (methylene blue/eosin and DAPI staining), A2780 P; assay type: cell-based, human; details: IC50 and IC75, 72 hr
Description: Preparations of A2780 P and A2780-cisR cells were exposed to test agents for 72 hr and stained with methylene blue and eosin^19. Drug-treated cells were grown in petri dishes, washed once with PBS, once with PBS:methanol (1:1, v/v), and then fixed in 100% (v/v) methanol for 10 min. Following fixation, cell monolayers were rinsed with anhydrous methanol and stained with methylene blue and eosin for 2 min. Monolayers were then agitated for a further 2 min, destained by rinsing under a gentle stream of water and then finally rinsed with distilled water. Phase contrast microscopy was carried out using a Ceti-phase contrast microscope.
Drug-treated cells were also stained using a DNA-binding agent commonly used to stain nuclei and visualise nuclear morphology and DNA condensation, namely 4,6-diamidino-2-phenylindole (DAPI). Briefly, a monolayer of drug-treated cells was washed in PBS and fixed with 4% (w/v) paraformaldehyde for 30 min at room temperature. These cells were then permeabilized with 0.2% (v/v) Triton X in PBS and incubated with 1 μg/ml of DAPI for 30 min. Cells were again washed three times with PBS and viewed using a fluorescent microscope with 340/380 nm excitation filter at 250× magnification. Apoptotic cells were confirmed by identification of intensely stained, fragmented nuclei and condensed chromatin.

HDAC1 = target: T1, HDAC1 (Homo sapiens, UniProt Q13547); assay: Cayman HDAC1 Inhibitor Screening Assay Kit (fluorescence); assay type: biochemical
T1 construct: purchased Cayman Chemicals, Ann Arbor, USA
T1 sequence (Q13547 whole entry): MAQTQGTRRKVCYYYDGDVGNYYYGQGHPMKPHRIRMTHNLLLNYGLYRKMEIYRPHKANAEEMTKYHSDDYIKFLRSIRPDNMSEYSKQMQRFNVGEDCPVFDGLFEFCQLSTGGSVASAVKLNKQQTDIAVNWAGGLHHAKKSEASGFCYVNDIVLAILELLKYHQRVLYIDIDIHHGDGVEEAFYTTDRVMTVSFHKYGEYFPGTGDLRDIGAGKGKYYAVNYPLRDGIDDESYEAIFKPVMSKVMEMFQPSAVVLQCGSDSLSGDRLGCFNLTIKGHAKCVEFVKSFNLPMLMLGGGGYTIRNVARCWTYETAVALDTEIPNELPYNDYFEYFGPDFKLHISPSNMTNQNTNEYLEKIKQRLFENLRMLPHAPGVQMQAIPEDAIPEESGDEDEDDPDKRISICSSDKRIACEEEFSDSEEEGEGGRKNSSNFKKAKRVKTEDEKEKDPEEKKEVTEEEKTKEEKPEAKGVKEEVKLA
Description: The assay provides a fast two-step fluorescence-based method for measuring HDAC activity. Briefly, in the first step an acetylated lysine residue was incubated with HDAC1 and potential inhibitors. Deacetylation sensitises the substrate so that treatment with the HDAC developer in the second step releases a fluorescent product. The fluorescent reaction product was analysed using a plate reader with an excitation wavelengths of 350 nm and emission wavelengths of 460 nm.

[6] = system: closed circular supercoiled pUC19 plasmid DNA; assay: DNA unwinding, agarose gel mobility shift assay; assay type: binding; details: 37° C., 48 h, range of concentrations
Description: Platinum compounds, such as cisplatin, that unwind the DNA duplex reduces the number of supercoils in closed circular DNA so that their number decreases. This decrease upon binding of unwinding agents causes a decrease in the rate of migration of DNA through agarose gel. Unwinding of closed circular supercoiled pUC19 plasmid DNA incubated with cis-[Pt^II(NH3)2(malSAHA−2H)] was assayed by an agarose gel mobility shift assay. Samples of plasmid DNA were incubated with platinum complexes at 37° C. in the dark for 48 h. All samples were subjected to electrophoresis on 1% native agarose gel running at 25° C. with TAE buffer and the voltage set at 25 V. The gels were then stained with EtBr, followed by photography with transilluminator.^16

[7] = system: SKBR (breast cancer cells); assay: Cellular uptake of Pt (FAAS), SKBR; assay type: cell-based; details: 72 hours treatment; for Uptake of Pt complexes into SKBR: 10 μM
Description: (§2) Cellular uptake of Pt compounds was measured in SKBR, SW480, A549, A2780P and CH1 cells. The cells were seeded in 60 mm tissue culture dishes with 10 mL of their respective medium and after overnight incubation, the cells were treated with the Pt complexes for 72 h at 10 μM concentration. The cell monolayers at the end of the incubation with the Pt complexes were washed (twice) with ice-cold phosphate buffered saline (PBS), trypsinized and harvested into cold (4° C.) PBS. Cell suspensions were centrifuged and the pellets were stored in PBS at −80° C. until assayed. Afterward, the pellets were digested by high pressure microwave mineralization and Pt content was determined by flameless atomic absorption spectrophotometry (FAAS). The results of cellular Pt uptake were corrected for adsorption effects. All experiments were made in triplicate.^17

A549 (lung cancer cells) = assay: Cellular uptake of Pt (FAAS), A549; assay type: cell-based; details: 10 μM, 72 hours treatment
Description: as §2

CH1 (cancer cells) = assay: Cellular uptake of Pt (FAAS), CH1; assay type: cell-based; details: 10 μM, 72 hours treatment
Description: as §2

[NH2][Pt]1([NH2])[O]C(=O)C(Cc2ccc(NS(=O)(=O)c3ccc(/C=C/C(=O)NO)cc3)cc2)C(=O)[O]1 [cis-[Pt(NH3)2(malBel−2H)], cis-[Pt(NH3)2(malBel−2H)].1.5H2O]
effect on DNA synthesis, BrdU incorporation (A2780 P cells [1]): dose-dependant decrease in DNA synthesis
caspase-3 activity [2]: an increase in both Caspase-3 and -9 activities
caspase-9 activity [3]: an increase in both Caspase-3 and -9 activities
caspase-9 activity [4]: an increase in both Caspase-3 and -9 activities
cellular morphology and integrity of DNA (A2780 P cells [5]): considerable thinning of the monolayer, attenuation of cells and the nuclei to be intensively stained and fragmented

[NH2][Pt]1([NH2])[O]C(=O)C(Cc2ccc(NC(=O)CCCCCCC(=O)NO)cc2)C(=O)[O]1 [cis-[Pt(NH3)2(malSAHA−2H)], cis-[Pt(NH3)2(malSAHA−2H)].3H2O]
inhibition of HDAC1 (in words) (HDAC1): inhibit HDAC1
IC50 (HDAC1; read-out: IC50 against HDAC I at 200 μM, at 200 μM): 1140 nM
unwinding of negatively supercoiled pUC19 plasmid DNA (DNA binding) [6]: can induce unwinding in negatively supercoiled pUC19 plasmid DNA
Uptake of Pt complexes into SKBR [7]: 6568 ± 312 pmol Pt/2 × 10^6 cell
uptake by cancer cells compared with cisplatin (in words) ([7]; SKBR, SW480, A549, A2780 P, CH1): taken up by cancer cells after 72 hours treatment and to a greater extent than cisplatin
Uptake of Pt complexes into A549 (A549 (lung cancer cells)): 6419 ± 619 pmol Pt/2 × 10^6 cell
Uptake of Pt complexes into CH1 (CH1 (cancer cells)): 1595 ± 158 pmol Pt/2 × 10^6 cell

N.N.[Cl][Pt][Cl] [cisplatin, cis-[Pt^II(NH3)2Cl2], reference compound]
Uptake of Pt complexes into SKBR [7]: 876.25 ± 70.55 pmol Pt/2 × 10^6 cell
Uptake of Pt complexes into A549 (A549 (lung cancer cells)): 614.85 ± 94.85 pmol Pt/2 × 10^6 cell
Uptake of Pt complexes into CH1 (CH1 (cancer cells)): 145.4 ± 21.8 pmol Pt/2 × 10^6 cell
cellular morphology and integrity of DNA (A2780 P cells [5]): considerable thinning of the monolayer, attenuation of cells and the nuclei to be intensively stained and fragmented
